Reference: patent publication US20120231994A1, “ANTAGONISM OF HUMAN FORMYL PEPTIDE RECEPTOR FOR TREATMENT OF DISEASE” (NIKAN PHARMACEUTICALS, LLC, priority 2009, published 2012)
pIC50: −log10 of the molar value.

What was measured:
hFPR = target: T1, hFPR (Homo sapiens, UniProt P21462); assay: radionuclide binding competition assay using fMLF peptide as internal standard
T1 sequence (P21462 1-350): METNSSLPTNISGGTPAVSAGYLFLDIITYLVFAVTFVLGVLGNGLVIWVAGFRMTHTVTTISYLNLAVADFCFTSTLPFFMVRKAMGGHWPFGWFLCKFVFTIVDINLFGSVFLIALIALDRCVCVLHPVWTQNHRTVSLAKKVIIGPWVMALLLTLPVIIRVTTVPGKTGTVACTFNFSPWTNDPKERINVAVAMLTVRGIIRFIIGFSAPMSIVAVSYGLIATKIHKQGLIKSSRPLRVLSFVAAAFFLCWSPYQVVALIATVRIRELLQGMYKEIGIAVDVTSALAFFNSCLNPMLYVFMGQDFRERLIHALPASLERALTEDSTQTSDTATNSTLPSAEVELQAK
Description: Provided herein is the use of formyl peptide receptor antagonists in the therapy of diseases or disorders involving inappropriate, exaggerated, or prolonged neutrophil response (i.e. recruitment and/or activation). […] Thus the cyclosporins of this invention include dihydroCsH, as well as compounds of Formula I that maintain FPR inhibitory activity.

Sprague-Dawley Rats = assay: Multiple Oral Gavage Toxicity Study of Cyclosporin H in Sprague-Dawley Rats with Toxicokinetics, hematology; assay type: in vivo; conditions: animals to which CsH had been administered (see Table 1)
[1] = test system: calcineurin mediated signaling; conditions: cited from earlier work

Row | Compound | pIC50 (hFPR) | circulating eosinophils (Sprague-Dawley Rats) | effect on calcineurin mediated signaling [1]
1 | CCCC[C@@H](C)[C@@H](O)[C@H]1C(=O)N[C@@H](CC)C(=O)N(C)CC(=O)N(C)[C@@H](CC(C)C)C(=O)N[C@@H](C(C)C)C(=O)N(C)[C@@H](CC(C)C)C(=O)N[C@@H](C)C(=O)N[C@H](C)C(=O)N(C)[C@@H](CC(C)C)C(=O)N(C)[C@@H](CC(C)C)C(=O)N(C)[C@H](C(C)C)C(=O)N1C [dihydroCsH, Dihydrocyclosporin H] | 8.10 | – | –
2 | C/C=C/C[C@@H](C)[C@@H](O)[C@H]1C(=O)N[C@@H](CC)C(=O)N(C)CC(=O)N(C)[C@@H](CC(C)C)C(=O)N[C@@H](C(C)C)C(=O)N(C)[C@@H](CC(C)C)C(=O)N[C@@H](C)C(=O)N[C@H](C)C(=O)N(C)[C@@H](CC(C)C)C(=O)N(C)[C@@H](CC(C)C)C(=O)N(C)[C@H](C(C)C)C(=O)N1C [CsH, Cyclosporine H] | – | significant decrease | no effect
